In article PMC9856072, “Complexed Crystal Structure of the Dihydroorotase Domain of Human CAD Protein with the Anticancer Drug 5-Fluorouracil” (Biomolecules, 2023):
Numbering of substitutions follows the chain as printed.

Assays:
Assay type in all cases: binding
[1] = target: T1, dihydroorotase domain of human CAD (huDHOase) (Homo sapiens, UniProt P27708, R1475A); experiment: intrinsic fluorescence quenching titration
T1 construct: residues 1456–1846 in human CAD protein, C-terminal His tag
T1 sequence (P27708 1456-1846 R1475A): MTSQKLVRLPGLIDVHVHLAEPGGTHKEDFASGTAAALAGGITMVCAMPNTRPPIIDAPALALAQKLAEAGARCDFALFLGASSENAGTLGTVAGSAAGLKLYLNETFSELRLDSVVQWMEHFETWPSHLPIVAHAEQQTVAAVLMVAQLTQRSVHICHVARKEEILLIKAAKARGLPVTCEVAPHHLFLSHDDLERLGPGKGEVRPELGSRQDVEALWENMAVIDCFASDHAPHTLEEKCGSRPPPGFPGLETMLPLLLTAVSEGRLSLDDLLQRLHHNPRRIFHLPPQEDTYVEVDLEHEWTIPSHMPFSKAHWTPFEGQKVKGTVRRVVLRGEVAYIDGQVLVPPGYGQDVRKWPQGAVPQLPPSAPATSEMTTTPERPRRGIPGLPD

[2] = target: T2, dihydroorotase domain of human CAD (huDHOase) (Homo sapiens, UniProt P27708); experiment: co-crystal structure ([…] Å) and intrinsic fluorescence quenching
T2 construct: residues 1456–1846 in human CAD protein, C-terminal His tag
T2 sequence (P27708 1456-1846): T1 sequence (P27708 1456-1846 R1475A) with A20R

[3] = target: T3, dihydroorotase domain of human CAD (huDHOase) (Homo sapiens, UniProt P27708, T1562A); experiment: intrinsic fluorescence quenching titration
T3 construct: residues 1456–1846 in human CAD protein, C-terminal His tag
T3 sequence (P27708 1456-1846 T1562A): T1 sequence (P27708 1456-1846 R1475A) with A20R, T107A

[4] = target: T2, dihydroorotase domain of human CAD (huDHOase); experiment: co-crystal structure ([…] Å)

O=c1[nH]cc(F)c(=O)[nH]1 [5-FU, 5-fluorouracil]
Kd [1]: 161.5 ± 1.6 µM
Kd [2]: 91.2 ± 1.7 µM
Kd [3]: 146 ± 2.1 µM

O=C(O)CC(O)C(=O)O (stereo not shown) [malate]
co-crystal structure (1.64 Å) [4]: This complexed structure revealed that malate is bound at the active site of huDHOase
